Columns and labels:
[1] = test system: phospho-JNK; experiment: phospho-JNK levels in A549 cells (Western blotting); format: cell-based, human; conditions: 10 μM, 4 hours
Procedure: (§1) Western blotting. Treated cell samples were lysed in 30 mM HEPES, pH 7.5, 10 mM NaCl, 5 mM MgCl2, 25 mM NaF, 1 mM EGTA, 1% Triton X-100, 10% glycerol, 2 mM sodium orthovanadate, 10 μg/ml aprotinin, 10μ/ml soybean trypsin inhibitor, 25 μg/ml leupeptin, 2 mM PMSF, and 6.4 mg/ml p-nitrophenylphosphate. Phospho-STAT3, phospho-AKT, phospho-Src, and phospho-p42/p44 MAPK antibodies were obtained from Cell Signaling Technologies (Cambridge, Mass., USA). Phospho-JNK and whole STAT3 antibodies were purchased from Santa Cruz Biotechnology (Santa Cruz, Calif., USA); phospho-JAK2 antibody came from Upstate Biotechnology (Lake Placid, N.Y., USA). Membranes were blocked in either 5% milk in phosphate-buffered saline (PBS), pH 7.4, containing 0.1% Tween-20 (PBS-T) or 1% BSA in tris-buffered saline (TBS), pH 7.5, containing 0.1% Tween-20 (TBS-T). Phospho-specific antibodies (excepting P-MAPK and P-JNK) were incubated in 1% BSA in TBS-T while all other antibodies were diluted in 5% milk in PBS-T for either 2 h at room temperature or overnight at 4° C. HRP-conjugated secondary antibodies (Jackson ImmunoResearch, West Grove, Pa., USA) were diluted in 5% milk in either PBS-T or TBS-T at 1:1000 dilution for 1 h at room temperature. […]
(§2) It was next determined whether withacnistin and the Cuc analogs are selective for the JAK2/STAT3 pathway over other signal transduction pathways. […]

[2] = test system: phospho-Src; experiment: phospho-Src levels in A549 cells (Western blotting); format: cell-based, human; conditions: 10 μM, 4 hours
Procedure: as §1, §2

[3] = test system: phospho-Akt; experiment: phospho-Akt levels in A549 cells (Western blotting); format: cell-based, human; conditions: 10 μM, 4 hours
Procedure: as §1, §2

[4] = test system: vector/3T3 cells; experiment: TUNEL apoptosis assay, vector NIH 3T3; format: cell-based, murine; conditions: 10 μM withacnistin mixture, 24 hours
Procedure: (§3) In vitro cellular proliferation and TUNEL assays. Subconfluent A549, MDA-MB-435, MDA-MB-453, MDAMB-468, v-Src transformed NIH 3T3 (v-Src/3T3), H-Ras transformed NIH 3T3 (H-Ras/3T3), and vector NIH 3T3 cells were grown in the presence of 10 μM cucurbitacin A, cucurbitacin I, withacnistin mixture, or DMSO vehicle control. After 24 hours, cells were harvested by trypsinization and counted via trypan blue exclusion assay to determine cellular viability. In all, 75,000-150,000 cells (depending on cell line) were then spun onto glass slides using a Cytospin 3 centrifuge (Thermo Shandon Inc., Pittsburgh, Pa., USA). After fixing cells to the slides with 4% paraformaldehyde in PBS, pH 7.5, for 1 h at room temperature, cells were labeled for apoptotic DNA strand breaks by TUNEL reaction using an in situ cell death detection kit (Roche Applied Science, Indianapolis, Ind., USA) according to the manufacturer's instructions, then mounted in Vectashield mounting medium (Vector Laboratories, Burlingame, Calif., USA) containing 4′,6-diamidino-2-phenylindole (DAPI) to counterstain DNA. […] TUNELpositive nuclei were counted and compared to DAPI-stained nuclei to determine the percent induction of apoptosis by the different cucurbitacin compounds. Statistical significance between control and treated tumors were evaluated by using Student's t-test. […]

[5] = test system: SOCS3; experiment: SOCS3 levels in cancer cell lines; format: cell-based, human; conditions: A549 cells
Procedure: Activation of STAT3 occurs through its tyrosine phosphorylation. Inactivation of STAT3 can occur through several mechanisms including dephosphorylation by phosphotyrosine protein phosphatases as well as blocking STAT3 activation by SOCS3, which binds and prevents kinases from activating STAT3. To determine whether Wit also affects negative regulators of STAT3, its effects on SOCS3 were determined. To this end, A549 cells were first treated with Wit for various periods of time and its effects on both P-STAT3 and SOCS3 were determined. […] However, by 24 hours, Wit suppressed both P-STAT3 and total STAT3 levels (data not shown). […] It is important to note that WM had little effect on […] protein levels (FIGS. 11A and 11C).

[6] = test system: v-Src/3T3 cells; experiment: TUNEL apoptosis assay, v-Src/3T3; format: cell-based, murine; conditions: 10 μM withacnistin mixture, 24 hours
Procedure: as §3

[7] = test system: STAT1; experiment: Growth factor/cytokine stimulation of STAT1 tyrosine phosphorylation; format: cell-based, human; conditions: U266 cells, pretreatment
Procedure: (§4) Furthermore, it is not know whether Wit suppresses constitutive or stimulated P-STAT3 levels selectively over other STAT family members such as STAT1 and STAT5. To this end, a variety of human cancer cell lines were treated with Wit and stimulated with growth factors or cytokines known to activate STAT family members as described under Methods. […] Pretreatment of U266 cells with W or WM blocked this IL-6 activation of STAT3 in a dose-dependent manner. In contrast, IL-6 activation of STAT1 in these cells was not affected by Wit pretreatment (FIG. 9B).

[8] = test system: MDA-MB-435 cells; experiment: TUNEL apoptosis assay, MDA-MB-435; format: cell-based, human; conditions: 10 μM withacnistin mixture, 24 hours
Procedure: as §3

[9] = test system: phospho-Erk1/2; experiment: phospho-Erk1/2 levels in A549 cells (Western blotting); format: cell-based, human; conditions: 10 μM
Procedure: as §1, §2

[10] = biological target: T1, STAT3 (Homo sapiens, UniProt P40763); experiment: Growth factor/cytokine stimulation of STAT3 tyrosine phosphorylation; format: cell-based
T1 construct: endogenous in cells; host or cells: U266; MDA-MB-468
Procedure: as §4

[11] = test system: H-Ras/3T3 cells; experiment: TUNEL apoptosis assay, H-Ras/3T3; format: cell-based, murine; conditions: 10 μM withacnistin mixture, 24 hours
Procedure: as §3

[12] = test system: phosphotyrosine-STAT3; experiment: Inhibition of phosphotyrosine-STAT3 levels in tumor cell lines (Western blotting); format: cell-based, human; conditions: A549 cells, by 24 hours; data not shown

T1 sequence (P40763 2-770 limits assumed): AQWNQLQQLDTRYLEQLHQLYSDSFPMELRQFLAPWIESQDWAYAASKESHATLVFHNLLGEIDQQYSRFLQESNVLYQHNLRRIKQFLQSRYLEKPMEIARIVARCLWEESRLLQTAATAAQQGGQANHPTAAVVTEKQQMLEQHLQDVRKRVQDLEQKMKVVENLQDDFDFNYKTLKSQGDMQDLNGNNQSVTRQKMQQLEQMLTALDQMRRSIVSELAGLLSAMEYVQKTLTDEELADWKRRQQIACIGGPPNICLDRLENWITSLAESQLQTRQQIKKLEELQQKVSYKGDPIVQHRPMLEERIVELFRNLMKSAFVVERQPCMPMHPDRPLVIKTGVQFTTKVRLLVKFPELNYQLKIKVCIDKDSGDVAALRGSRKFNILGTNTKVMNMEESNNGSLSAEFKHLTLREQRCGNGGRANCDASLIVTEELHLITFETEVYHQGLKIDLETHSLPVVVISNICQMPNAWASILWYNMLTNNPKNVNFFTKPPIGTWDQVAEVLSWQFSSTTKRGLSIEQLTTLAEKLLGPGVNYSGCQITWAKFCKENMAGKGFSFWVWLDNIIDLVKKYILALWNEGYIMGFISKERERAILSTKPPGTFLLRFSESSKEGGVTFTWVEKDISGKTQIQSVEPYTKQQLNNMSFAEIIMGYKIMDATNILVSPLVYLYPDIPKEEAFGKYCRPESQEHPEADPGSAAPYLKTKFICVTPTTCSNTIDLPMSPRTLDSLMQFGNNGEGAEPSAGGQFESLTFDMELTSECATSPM

Structure (SMILES)	phosphotyrosine levels of JNK1 [1]	phosphotyrosine levels of Src [2]	phosphotyrosine levels of Akt [3]	apoptosis (TUNEL-positive cells) [4]	fold increase of apoptosis over control [4]	levels of SOCS3 [5]	onset of SOCS3 induction [5]	apoptosis (TUNEL-positive cells) [6]	fold increase of apoptosis over control [6]	IL-6 activation of STAT1 [7]	increase of percentage of apoptotic cells compared to vehicle control [8]	levels of phosphorylated Erk1/2 [9]	EGF activation of STAT3 ([10]; MDA-MB-468 cells)	IL-6 activation of STAT3 (tyrosine phosphorylation) ([10]; U266 cells, pretreatment, dose-dependent)	PDGF-stimulated tyrosine phosphorylation of STAT3 ([10]; pretreatment (FIG. 9D))	apoptosis (TUNEL-positive cells) [11]	fold increase of apoptosis over control [11]	P-STAT3 levels [12]
CC(=O)OC(C)(C)/C=C/C(=O)[C@](C)(O)[C@H]1[C@H](O)C[C@@]2(C)[C@@H]3CC=C4[C@@H](C[C@H](O)C(=O)C4(C)C)[C@]3(CO)C(=O)C[C@]12C [Cuc A, cucurbitacin A]	little inhibitory activity	little inhibitory activity	little inhibitory activity	–	–	–	–	–	–	–	–	–	–	–	–	–	–	–
CC(=O)OC[C@]12CC[C@H]3[C@@H](C[C@H]4O[C@]45[C@@H](O)C=CC(=O)[C@]35C)[C@@H]1CC[C@@H]2[C@H](C)[C@H]1CC(C)=C(C)C(=O)O1 [withacnistin]	–	–	–	7.3±3.9%	4.2 fold	induced	detectable only after two hours	39.2±7.3%	50.2 fold	not affected	25.9 fold	significantly increased	inhibited	blocked	inhibited	7.3±4.7%	12.5 fold	suppressed
